Source: the supplement of paper PMC11208160

Assay: recombinant UMI read abundance after kanamycin selection (control-corrected) (log10(CPM+1)); higher = more efficient recombination; extreme values may be limits of the assay; sequences stand for … in AGTGCAGAGAAAATCGGCCAGTTTTCTCTGCCTGCAGTCCGCATGCCGTGGGACCCCTTGGGTTCTAACCTGTTGCCTAGATTTATGCAGCGGACTGCCTTTCTCCCAAAGTGATAAACCGG…AGGTTGGTTTCACT; site = the 11-nt donor
Procedure, shortened: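 Sequenced counts of recombinant UMIs were turned into CPM, averaged across replicates and scaled with control-derived factors. The reported figure is log10(CPM+1). Those UMIs, each 12 nt long, tagged donor and donor-binding-loop pairs on a plasmid with a promoterless kanamycin gene, screened as a pool in Escherichia coli with IPTG (0.07 mM) plus kanamycin or without selection.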
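Note: IS621 bridge recombinase in Escherichia coli cells against a fixed T5 target plasmid.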

Sequence | recombinant UMI read abundance (log10)
CTAGTATCATGGACCGGTTTTCCCGGTAATCCGTATTTGAC (site CTATTATCTGC) | 0
CCTAAAGCATGGACCGGTTTTCCCGGTAATCCGTATTTGAT (site CCTAGAGCTAT) | 0.00698
CCACTAACATGGACCGGTTTTCCCGGTAATCCGTATTTGGA (site CGACTAACTTC) | 0.0202
CCCGATCCATGGACCGGTTTTCCCGGTAATCCGTATTTGCA (site CCCGGTCCTTG) | 0
TGGCCGGCATGGACCGGTTTTCCCGGTAATCCGTATTTGTC (site TGGCCGGCTGG) | 0
ACATGAACATGGACCGGTTTTCCCGGTAATCCGTATTTGTC (site ACATGAACTGA) | 1.57
CACTGCTCATGGACCGGTTTTCCCGGTAATCCGTATTTGCC (site CACTGCTCTGG) | 2.93
GCGAAGCCATGGACCGGTTTTCCCGGTAATCCGTATTTGGG (site GCGAAGCCTTC) | 0.0136
CCGTTAGCATGGACCGGTTTTCCCGGTAATCCGTATTTGTA (site CCGTTAGCTGA) | 0
GGATCATCATGGACCGGTTTTCCCGGTAATCCGTATTTGCT (site TGATCATCTAG) | 0.91
AAGGAATCATGGACCGGTTTTCCCGGTAATCCGTATTTGCG (site AAGGAATCTCG) | 3.14
TGTGATACATGGACCGGTTTTCCCGGTAATCCGTATTTGCC (site TGTGATACTGG) | 0
TTGCCGGCATGGACCGGTTTTCCCGGTAATCCGTATTTGGC (site TAGCCGGCTGC) | 0.00655
CTCCTCCCATGGACCGGTTTTCCCGGTAATCCGTATTTGAC (site CTCCTCCCTGT) | 1.49
ATTATCCCATGGACCGGTTTTCCCGGTAATCCGTATTTGCC (site ATTATCCCTGG) | 0.749
CCCAGATCATGGACCGGTTTTCCCGGTAATCCGTATTTGTC (site CCCAAATCTGA) | 0
CGTTCATCATGGACCGGTTTTCCCGGTAATCCGTATTTGCC (site CGTTCATCTGG) | 2.32
CACTTCTCATGGACCGGTTTTCCCGGTAATCCGTATTTGCC (site CACTTCTCTGG) | 2.12
GCCAGGACATGGACCGGTTTTCCCGGTAATCCGTATTTGTT (site GCCAGGACTAA) | 1.71
TCAGGTGCATGGACCGGTTTTCCCGGTAATCCGTATTTGAT (site ACAGGTGCTAT) | 0
CTCCCCACATGGACCGGTTTTCCCGGTAATCCGTATTTGAG (site CTCCCTACTCT) | 0
CTAGGGTCATGGACCGGTTTTCCCGGTAATCCGTATTTGAC (site CTAGGGTCTGT) | 1.41
CGAGTACCATGGACCGGTTTTCCCGGTAATCCGTATTTGGG (site CGAGCACCTCC) | 0.0141
TCGGTATCATGGACCGGTTTTCCCGGTAATCCGTATTTGCA (site TCGGTATCTTG) | 2.31
ACGCCACCATGGACCGGTTTTCCCGGTAATCCGTATTTGGG (site ACGCCACCTCC) | 0.011

Sequence | recombinant UMI read abundance (log10)
CCTAATACATGGACCGGTTTTCCCGGTAATCCGTATTTGGC (site CCGAATACTGC) | 0
GCGAAGCCATGGACCGGTTTTCCCGGTAATCCGTATTTGGG (site GCGAAGCCTCG) | 0
CGAGTACCATGGACCGGTTTTCCCGGTAATCCGTATTTGGG (site CGAGGACCTCC) | 0.00419
GAAGTGGCATGGACCGGTTTTCCCGGTAATCCGTATTTGGT (site GGAGTGGCTAC) | 0.113
AGAAAGGCATGGACCGGTTTTCCCGGTAATCCGTATTTGGT (site AGAAAGGCTAG) | 0.34
GTTGTTCCATGGACCGGTTTTCCCGGTAATCCGTATTTGGT (site GCTGTTCCTAC) | 0.00506
AGGGAACCATGGACCGGTTTTCCCGGTAATCCGTATTTGAT (site GGGGAACCTAT) | 0
CCTAATACATGGACCGGTTTTCCCGGTAATCCGTATTTGGC (site CGTAATACTGC) | 0
TGTTCCTCATGGACCGGTTTTCCCGGTAATCCGTATTTGTA (site TGTTCCCCTTA) | 0.00558
CATTCGACATGGACCGGTTTTCCCGGTAATCCGTATTTGGG (site CATTCGACTCC) | 0.00677
GGGAGTCCATGGACCGGTTTTCCCGGTAATCCGTATTTGTT (site GGGAGTCCTAA) | 0.709
TCCCTTGCATGGACCGGTTTTCCCGGTAATCCGTATTTGGT (site TCCCTTGCTAC) | 0
CTAGTATCATGGACCGGTTTTCCCGGTAATCCGTATTTGAC (site CTGCTATCTGT) | 0
GGCTCAGCATGGACCGGTTTTCCCGGTAATCCGTATTTGGG (site GGCTCAGCTCC) | 0.02
GTGGCGGCATGGACCGGTTTTCCCGGTAATCCGTATTTGTG (site GTGGGGGCTCA) | 0.0119
CCGTTAGCATGGACCGGTTTTCCCGGTAATCCGTATTTGTC (site CCGTTAGCTGA) | 1.58
TAGCCCTCATGGACCGGTTTTCCCGGTAATCCGTATTTGGT (site TAGCCATCTAC) | 0.00538
ATTAGAACATGGACCGGTTTTCCCGGTAATCCGTATTTGAG (site AATAGAACTCT) | 0.403
AGATCTACATGGACCGGTTTTCCCGGTAATCCGTATTTGTG (site AGATCTACTCA) | 0.215
CGGAACCCATGGACCGGTTTTCCCGGTAATCCGTATTTGTG (site CGGAACCCTCA) | 1.13
ATCCAAGCATGGACCGGTTTTCCCGGTAATCCGTATTTGCG (site ATCCAAGCTCA) | 0.0396
CTAGTATCATGGACCGGTTTTCCCGGTAATCCGTATTTGAC (site TTAGTAACTGT) | 0
CTCTACACATGGACCGGTTTTCCCGGTAATCCGTATTTGGT (site CTCTACACTAT) | 0.203
TGGCTGGCATGGACCGGTTTTCCCGGTAATCCGTATTTGGC (site TGGCCGGCTGC) | 0
CAGGCAACATGGACCGGTTTTCCCGGTAATCCGTATTTGTG (site CAGGCAACTCA) | 0.912

Sequence | recombinant UMI read abundance (log10)
AGCCTGTCATGGACCGGTTTTCCCGGTAATCCGTATTTGAC (site AGCCTGTCTGT) | 0
TGAACGACATGGACCGGTTTTCCCGGTAATCCGTATTTGGA (site TGAACGACTTC) | 0.221
ATCGAGACATGGACCGGTTTTCCCGGTAATCCGTATTTGGT (site ATAGAGACTAC) | 1.76
TATGCTGCATGGACCGGTTTTCCCGGTAATCCGTATTTGGA (site TATGCTGCTTC) | 0.0199
TGAGCGTCATGGACCGGTTTTCCCGGTAATCCGTATTTGAC (site TGAGCGTCTGT) | 1.7
ACCGACGCATGGACCGGTTTTCCCGGTAATCCGTATTTGTT (site ACCGACGCTAA) | 0.786
GTTAGCACATGGACCGGTTTTCCCGGTAATCCGTATTTGGC (site GTTAGAACTGC) | 0
CACGGCCCATGGACCGGTTTTCCCGGTAATCCGTATTTGTT (site CACGGCCCTCA) | 0.0268
AATGTAGCATGGACCGGTTTTCCCGGTAATCCGTATTTGCT (site AATGTACCTAG) | 0
CTCTTTGCATGGACCGGTTTTCCCGGTAATCCGTATTTGAC (site CTCTTTGCTGT) | 0.503
AATGTCGCATGGACCGGTTTTCCCGGTAATCCGTATTTGGT (site AATGTCGCTAC) | 1.19
TATCTCACATGGACCGGTTTTCCCGGTAATCCGTATTTGTC (site TATCTCACTGA) | 1.44
TCTATGCCATGGACCGGTTTTCCCGGTAATCCGTATTTGTT (site TCTATGCCTAA) | 0.00238
CGCCGTACATGGACCGGTTTTCCCGGTAATCCGTATTTGCC (site CGCCGTACTCG) | 0.114
TTATGTCCATGGACCGGTTTTCCCGGTAATCCGTATTTGTC (site TTATGTCCTGA) | 0.363
ACGAACTCATGGACCGGTTTTCCCGGTAATCCGTATTTGTC (site ACGAACTCTGA) | 2.03
GGAGTGGCATGGACCGGTTTTCCCGGTAATCCGTATTTGGT (site GGAGTGCCTAC) | 0.377
TTTGCGGCATGGACCGGTTTTCCCGGTAATCCGTATTTGAT (site TTTGCGGCTAC) | 0.00828
CTCTTCACATGGACCGGTTTTCCCGGTAATCCGTATTTGCT (site CTCTTCACTAG) | 2.46
AGGAAAACATGGACCGGTTTTCCCGGTAATCCGTATTTGTA (site AGGAAGACTTG) | 0
CGTAGTGCATGGACCGGTTTTCCCGGTAATCCGTATTTGTT (site CGTAGTGCTAA) | 0.84
GATTATCCATGGACCGGTTTTCCCGGTAATCCGTATTTGCC (site GATTATCCTGG) | 0
AAGCACGCATGGACCGGTTTTCCCGGTAATCCGTATTTGCG (site AAGCACGCTCT) | 0.766
CGATCAGCATGGACCGGTTTTCCCGGTAATCCGTATTTGCT (site CGATCATCTAG) | 0
ATATGGCCATGGACCGGTTTTCCCGGTAATCCGTATTTGAC (site ATAGGGCCTGT) | 0
